Key:
Assay in all cases: cells
Design in all cases: species or system panel of human cancer cell lines; Eurofins OncoPanel proliferation; nuclei count by high-content fluorescence imaging, 10-point dose response
A172 = settings: Homo sapiens, A 172, 72 h, cell count, 3 days
Summary of the method: (§1)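 Ten half-log concentrations from 100 μM (0.1% DMSO max) applied one day post-seeding, 3-day exposure at 37°C; untreated time-zero plate for GI50. Readout is nuclear cell count by automated fluorescence imaging, giving EC50, IC50, GI50 and 0–10 activity area.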

A375 = settings: Homo sapiens, A-375, 72 h, cell count, 3 days
Summary of the method: as §1

EM-2 = settings: Homo sapiens, EM-2, 72 h, cell count, 3 days
Summary of the method: as §1

H9 = settings: Homo sapiens, H9, 72 h, cell count, 3 days
Summary of the method: as §1

HT-1197 = settings: Homo sapiens, HT1197, 72 h, cell count, 3 days
Summary of the method: as §1

Hs 688(A).T = settings: 72 h, cell count, 3 days
Summary of the method: as §1

IM-9 = settings: Homo sapiens, IM-9, 72 h, cell count, 3 days
Summary of the method: as §1

J-RT3-T3-5 = settings: Homo sapiens, J-RT3-T3-5, 72 h, cell count, 3 days
Summary of the method: as §1

LS411N = settings: Homo sapiens, LS-411N, 72 h, cell count, 3 days
Summary of the method: as §1

MG-63 = settings: Homo sapiens, MG-63, 72 h, cell count, 3 days
Summary of the method: as §1

MX-1 = settings: Homo sapiens, MX1, 72 h, cell count, 3 days
Summary of the method: as §1

SKO-007 = settings: SKO-007, 72 h, cell count, 3 days
Summary of the method: as §1

U2OS = settings: Homo sapiens, U2OS, 72 h, cell count, 3 days
Summary of the method: as §1

VA-ES-BJ = settings: 72 h, cell count, 3 days
Summary of the method: as §1

[1] = 50% of maximum possible response

IC50 (A375; [1]): 9.47 µM
GI50 (A375; corrected for time zero): 9 µM
EC50 (A375; curve inflection point): 9.47 µM
IC50 (SKO-007; [1]): 42 µM
GI50 (SKO-007; corrected for time zero): 22.3 µM
EC50 (SKO-007; curve inflection point): 42 µM
IC50 (U2OS; [1]): 8.58 µM
GI50 (U2OS; corrected for time zero): 6.64 µM
EC50 (U2OS; curve inflection point): 7.6 µM
SMILES: C[C@@H]1CC(=O)NN=C1c1ccc(NN=C(C#N)C#N)cc1 [levosimendan]
IC50 (A172; [1]): 55.8 µM
GI50 (A172; corrected for time zero): 44.8 µM
EC50 (A172; curve inflection point): 55.8 µM
IC50 (EM-2; [1]): 25.4 µM
GI50 (EM-2; corrected for time zero): 18.6 µM
EC50 (EM-2; curve inflection point): 22.3 µM
IC50 (H9; [1]): 5.4 µM
GI50 (H9; corrected for time zero): 4.31 µM
EC50 (H9; curve inflection point): 4.92 µM
IC50 (HT-1197; [1]): > 100 µM
GI50 (HT-1197; corrected for time zero): 96 µM
EC50 (HT-1197; curve inflection point): > 100 µM
IC50 (Hs 688(A).T; [1]): > 100 µM
GI50 (Hs 688(A).T; corrected for time zero): 10.5 µM
EC50 (Hs 688(A).T; curve inflection point): 16 µM
IC50 (IM-9; [1]): 41 µM
GI50 (IM-9; corrected for time zero): 35.5 µM
EC50 (IM-9; curve inflection point): 41 µM
IC50 (J-RT3-T3-5; [1]): 24.4 µM
GI50 (J-RT3-T3-5; corrected for time zero): 18.4 µM
EC50 (J-RT3-T3-5; curve inflection point): 24.4 µM
IC50 (LS411N; [1]): > 100 µM
GI50 (LS411N; corrected for time zero): > 100 µM
EC50 (LS411N; curve inflection point): > 100 µM
IC50 (MG-63; [1]): 19.5 µM
GI50 (MG-63; corrected for time zero): 14.2 µM
EC50 (MG-63; curve inflection point): 16.9 µM
IC50 (MX-1; [1]): 40.4 µM
GI50 (MX-1; corrected for time zero): 37 µM
EC50 (MX-1; curve inflection point): 40.4 µM
IC50 (VA-ES-BJ; [1]): 51.7 µM
GI50 (VA-ES-BJ; corrected for time zero): 42.4 µM
EC50 (VA-ES-BJ; curve inflection point): 51.7 µM

From paper PMC6576746, “Rational discovery of dual-indication multi-target PDE/Kinase inhibitor for precision anti-cancer therapy using structural systems pharmacology” (PLoS Computational Biology, 2019)
